# Where two headings read alike, the source gives them in different places.
# Experiments:
# Assay type in all cases: in vivo
# Geranium pusillum = test: Greenhouse post-emergence (POST) herbicidal test on GERPU; settings: for inhibition at 2 g/ha: use rate 2 gai/ha; for inhibition at 4 g/ha: use rate 4 gai/ha
# Procedure, shortened: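 Sow or transplant seedlings into loamy-sand pots; grow to 3–15 cm; spray aqueous suspension/emulsion of actives from a 5% by weight emulsion concentrate; hold at 10-25° C or 20-35° C depending on species; score injury 0–100 at 20 DAT.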
# Echinochloa crus-galli = test: Greenhouse pre-emergence (PRE) herbicidal test on ECHCG; settings: Echinochloa crus-galli, pre-emergence, PRE
# Euphorbia heterophylla = test: Greenhouse pre-emergence (PRE) herbicidal test on EPHHL; settings: Euphorbia heterophylla, pre-emergence
# Procedure, shortened: (§1)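 Visual 0–100 rating at 20 days after treatment; 0 = normal growth, 100 = no emergence or complete kill of shoots. Pre-emergent application to seeded pots of loamy sand (~3.0% humus), species-dependent temperature 10-25° C or 20-35° C.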
# Avena fatua = test: Greenhouse pre-emergence (PRE) herbicidal test on AVEFA; settings: use rate 2 gai/ha
# Excerpt: (§2) The culture containers used were plastic pots containing loamy sand with approximately 3.0% of humus as substrate. The seeds of the test plants were sown separately for each species.
# (§3) For the pre-emergence treatment, the active compounds, suspended or emulsified in water, were applied directly after sowing by means of finely distributing nozzles. The containers were irrigated gently to promote germination and growth and subsequently covered with transparent plastic hoods until the plants had rooted. This cover caused uniform germination of the test plants unless this was adversely affected by the active compounds.
# (§4) Depending on the species, the plants were kept at 10-25° C. and 20-35° C., respectively.
# (§5) The test period extended over 2 to 4 weeks. During this time, the plants were tended and their response to the individual treatments was evaluated.
# (§6) Evaluation was carried out using a scale from 0 to 100. 100 means no emergence of the plants, or complete destruction of at least the above-ground parts, and 0 means no damage or normal course of growth. A good herbicidal activity is given at values of at least 70, and very good herbicidal activity is given at values of at least 85.
# (§7) If not stated differently, the respective components A and B, and if appropriate, C were formulated as a 5% by weight strength emulsion concentrate and, with addition of the amount of solvent system, introduced into the spray liquor used for applying the active compound.
# (§8) As indicated application was either post emergent (POST) at the respective growth stage (GS) of the weed (BBCH code), or pre-emergent (PRE).
# (§9) Assessment was 20 days after treatment (DAT).
# Alopecurus myosuroides = test: Greenhouse pre-emergence (PRE) herbicidal test on ALOMY; settings: Alopecurus myosuroides, pre-emergence
# Procedure, shortened: as §1
# Ambrosia artemisiifolia = test: Greenhouse pre-emergence (PRE) herbicidal test on AMBEL; settings: Ambrosia artemisiifolia, pre-emergence
# Ipomoea hederacea = test: Greenhouse pre-emergence (PRE) herbicidal test on IPOHE; settings: Ipomoea hederacea, pre-emergence; for inhibition at 8 g/ha: use rate 8 gai/ha
# Excerpt: as §2, §3, §4, §5, §6, §7, §8, §9
# Abutilon theophrasti = test: Greenhouse pre-emergence (PRE) herbicidal test on ABUTH; settings: Abutilon theophrasti, pre-emergence, PRE; for pest or weed control at 2 g/ha: I-3 solo 2 gai/ha
# Procedure, shortened: as §1
# AMAPA = test: Greenhouse pre-emergence (PRE) herbicidal test on AMAPA; settings: pre-emergence
# [1] = 240 h, use rate 1 gai/ha, 10 DAT
compound,measurement,setting,value
COc1c(Cl)cc(F)c(F)c1Nc1nc(N)nc(C(C)(C)F)n1 [Compound I-3],% activity,"Geranium pusillum; GERPU POST, use rate 8 gai/ha",50%
same,pest or weed control at 2 g/ha,"Geranium pusillum; Geranium pusillum, post-emergence, 432 h, POST, GERPU, I-3 solo 2 gai/ha, 18 DAT",25%
same,inhibition at 2 g/ha,"Geranium pusillum; Geranium pusillum, post-emergence, 480 h, GERPU POST, 20 DAT, read-out: % activity",25%
same,pest or weed control at 2 g/ha,"Geranium pusillum; Geranium pusillum, post-emergence, 480 h, POST, 2 gai/ha, 20 DAT",10%
same,pest or weed control at 8 g/ha,"Geranium pusillum; Geranium pusillum, post-emergence, 480 h, POST, 8 gai/ha, 20 DAT",75%
same,pest or weed control at 2 g/ha,"Geranium pusillum; Geranium pusillum, post-emergence, 480 h, POST, GERPU, I-3 solo 2 gai/ha, 20 DAT",20%
same,pest or weed control at 8 g/ha,"Geranium pusillum; Geranium pusillum, post-emergence, 480 h, POST, GERPU, I-3 solo 8 gai/ha, 20 DAT",10%
same,inhibition at 4 g/ha,"Geranium pusillum; Geranium pusillum, post-emergence, 480 h, POST, GERPU, 20 DAT",0%
same,inhibition at 16 g/ha,"Geranium pusillum; Geranium pusillum, post-emergence, 480 h, POST, GERPU, use rate 16 gai/ha, 20 DAT",10%
same,inhibition at 2 g/ha,"Geranium pusillum; Geranium pusillum, post-emergence, GERPU POST, read-out: % activity",30%
same,inhibition at 8 g/ha,"Geranium pusillum; Geranium pusillum, post-emergence, GERPU POST, use rate 8 gai/ha, read-out: % activity",70%
same,inhibition at 2 g/ha,"Geranium pusillum; Geranium pusillum, post-emergence, POST, GERPU, read-out: % activity",20%
same,inhibition at 4 g/ha,"Geranium pusillum; Geranium pusillum, post-emergence, POST, GERPU",40%
same,inhibition at 1 g/ha,Echinochloa crus-galli; [1],10%
same,inhibition at 2 g/ha,"Echinochloa crus-galli; 240 h, use rate 2 gai/ha, 10 DAT, read-out: % activity",10%
same,inhibition at 4 g/ha,"Echinochloa crus-galli; 240 h, use rate 4 gai/ha, 10 DAT",20%
same,inhibition at 8 g/ha,"Echinochloa crus-galli; 240 h, use rate 8 gai/ha, 10 DAT, read-out: % activity",20%
same,pest or weed control at 2 g/ha,"Echinochloa crus-galli; 432 h, ECHCG, I-3 solo 2 gai/ha, 18 DAT",25%
same,inhibition at 2 g/ha,"Echinochloa crus-galli; 480 h, ECHCG, 2 gai/ha, 20 DAT, read-out: % activity solo application",5%
same,inhibition at 8 g/ha,"Echinochloa crus-galli; 480 h, ECHCG, 8 gai/ha, 20 DAT, read-out: % activity solo application",95%
same,inhibition at 2 g/ha,"Echinochloa crus-galli; 480 h, ECHCG, use rate 2 gai/ha, 20 DAT, read-out: solo application % activity",5%
same,inhibition at 8 g/ha,"Echinochloa crus-galli; 480 h, ECHCG, use rate 8 gai/ha, 20 DAT, read-out: solo application % activity",95%
same,pest or weed control at 2 g/ha,"Euphorbia heterophylla; 432 h, PRE, EPHHL, I-3 solo 2 gai/ha, 18 DAT",15%
same,pest or weed control at 8 g/ha,"Euphorbia heterophylla; 432 h, PRE, EPHHL, I-3 solo 8 gai/ha, 18 DAT",75%
same,inhibition at 2 g/ha,"Euphorbia heterophylla; 480 h, EPHHL PRE, 20 DAT, use rate 2 gai/ha, read-out: % activity",0%
same,inhibition at 8 g/ha,"Euphorbia heterophylla; 480 h, EPHHL PRE, 20 DAT, use rate 8 gai/ha, read-out: % activity",50%
same,pest or weed control at 8 g/ha,"Euphorbia heterophylla; 480 h, PRE, 8 gai/ha, 20 DAT",50%
same,inhibition at 2 g/ha,"Euphorbia heterophylla; 480 h, PRE, EPHHL, 2 gai/ha, 20 DAT, read-out: % activity solo application",5%
same,inhibition at 8 g/ha,"Euphorbia heterophylla; 480 h, PRE, EPHHL, 8 gai/ha, 20 DAT, read-out: % activity solo application",50%
same,pest or weed control at 8 g/ha,"Euphorbia heterophylla; 480 h, PRE, EPHHL, I-3 solo 8 gai/ha, 20 DAT",20%
same,inhibition at 2 g/ha,"Euphorbia heterophylla; 480 h, PRE, EPHHL, use rate 2 gai/ha, 20 DAT, read-out: solo application % activity",10%
same,inhibition at 8 g/ha,"Euphorbia heterophylla; 480 h, PRE, EPHHL, use rate 8 gai/ha, 20 DAT, read-out: solo application % activity",50%
same,inhibition at 8 g/ha,"Euphorbia heterophylla; EPHHL PRE, use rate 8 gai/ha, read-out: % activity",55%
same,inhibition at 2 g/ha,"Euphorbia heterophylla; PRE, EPPHL, use rate 2 gai/ha, read-out: % activity",45%
same,inhibition at 8 g/ha,"Euphorbia heterophylla; PRE, EPPHL, use rate 8 gai/ha, read-out: % activity",80%
same,inhibition at 2 g/ha,Avena fatua,20%
same,pest or weed control at 2 g/ha,"Alopecurus myosuroides; 480 h, PRE, 2 gai/ha, 20 DAT, read-out: % activity",10%
same,pest or weed control at 8 g/ha,"Alopecurus myosuroides; 480 h, PRE, 8 gai/ha, 20 DAT",70%
same,inhibition at 2 g/ha,"Alopecurus myosuroides; 480 h, PRE, ALOMY, 2 gai/ha, 20 DAT, read-out: % activity solo application",5%
same,inhibition at 8 g/ha,"Alopecurus myosuroides; 480 h, PRE, ALOMY, 8 gai/ha, 20 DAT, read-out: % activity solo application",90%
same,inhibition at 8 g/ha,"Alopecurus myosuroides; 480 h, PRE, ALOMY, use rate 8 gai/ha, 20 DAT, read-out: solo application % activity",90%
same,inhibition at 2 g/ha,"Alopecurus myosuroides; 480 h, PRE, use rate 2 gai/ha, 20 DAT, read-out: % activity",65%
same,inhibition at 2 g/ha,"Alopecurus myosuroides; ALOMY PRE, use rate 2 gai/ha, read-out: % activity",25%
same,inhibition at 4 g/ha,"Alopecurus myosuroides; PRE, ALOMY, use rate 4 gai/ha",90%
same,inhibition at 2 g/ha,"Ambrosia artemisiifolia; 240 h, PRE, use rate 2 gai/ha, 10 DAT, read-out: % activity",10%
same,inhibition at 8 g/ha,"Ambrosia artemisiifolia; 240 h, PRE, use rate 8 gai/ha, 10 DAT, read-out: % activity",65%
same,inhibition at 2 g/ha,"Ambrosia artemisiifolia; 480 h, AMBEL PRE, 20 DAT, use rate 2 gai/ha, read-out: % activity",50%
same,inhibition at 2 g/ha,"Ambrosia artemisiifolia; 480 h, PRE, AMBEL, 2 gai/ha, 20 DAT, read-out: % activity solo application",10%
same,inhibition at 8 g/ha,"Ambrosia artemisiifolia; 480 h, PRE, AMBEL, 8 gai/ha, 20 DAT, read-out: % activity solo application",45%
same,inhibition at 2 g/ha,"Ambrosia artemisiifolia; 480 h, PRE, AMBEL, use rate 2 gai/ha, 20 DAT, read-out: solo application % activity",10%
same,inhibition at 8 g/ha,"Ambrosia artemisiifolia; 480 h, PRE, AMBEL, use rate 8 gai/ha, 20 DAT, read-out: solo application % activity",45%
same,inhibition at 8 g/ha,"Ambrosia artemisiifolia; 480 h, PRE, use rate 8 gai/ha, 20 DAT, read-out: % activity",90%
same,inhibition at 4 g/ha,"Ambrosia artemisiifolia; PRE, AMBEL, use rate 4 gai/ha",25%
same,inhibition at 4 g/ha,"Ipomoea hederacea; 480 h, PRE, IPOHE, use rate 4 gai/ha, 20 DAT",5%
same,inhibition at 8 g/ha,"Ipomoea hederacea; 480 h, PRE, IPOHE, 20 DAT",30%
same,inhibition at 16 g/ha,"Ipomoea hederacea; 480 h, PRE, IPOHE, use rate 16 gai/ha, 20 DAT",40%
same,inhibition at 32 g/ha,"Ipomoea hederacea; 480 h, PRE, IPOHE, use rate 32 gai/ha, 20 DAT",40%
same,inhibition at 8 g/ha,Ipomoea hederacea; IPOHE PRE,35%
same,pest or weed control at 2 g/ha,"Abutilon theophrasti; 432 h, ABUTH, 18 DAT",70%
same,pest or weed control at 8 g/ha,"Abutilon theophrasti; 480 h, 8 gai/ha, 20 DAT",70%
same,inhibition at 2 g/ha,"Abutilon theophrasti; 480 h, ABUTH, 2 gai/ha, 20 DAT, read-out: % activity solo application",25%
same,inhibition at 8 g/ha,"Abutilon theophrasti; 480 h, ABUTH, 8 gai/ha, 20 DAT, read-out: % activity solo application",80%
same,pest or weed control at 2 g/ha,"Abutilon theophrasti; 480 h, ABUTH, 20 DAT",10%
same,inhibition at 2 g/ha,"Abutilon theophrasti; 480 h, ABUTH, use rate 2 gai/ha, 20 DAT, read-out: solo application % activity",25%
same,inhibition at 8 g/ha,"Abutilon theophrasti; 480 h, ABUTH, use rate 8 gai/ha, 20 DAT, read-out: % activity",70%
same,inhibition at 8 g/ha,"Abutilon theophrasti; 480 h, ABUTH, use rate 8 gai/ha, 20 DAT, read-out: solo application % activity",85%
same,inhibition at 2 g/ha,"Abutilon theophrasti; 480 h, use rate 2 gai/ha, 20 DAT, read-out: % activity",10%
same,inhibition at 2 g/ha,"Abutilon theophrasti; ABUTH, use rate 2 gai/ha, read-out: % activity",65%
same,inhibition at 4 g/ha,"Abutilon theophrasti; ABUTH, use rate 4 gai/ha",65%
same,inhibition at 1 g/ha,AMAPA; [1],40%
same,inhibition at 2 g/ha,"AMAPA; 240 h, use rate 2 gai/ha, 10 DAT",60%
same,inhibition at 8 g/ha,"AMAPA; 480 h, use rate 8 gai/ha, 20 DAT",60%

# Source: US20260007133A1, “HERBICIDAL COMPOSITION COMPRISING AZINE COMPOUNDS” (BASF SE, priority 2022, published 2026)
